From a melting point compilation (Tetko et al.; mined from patent text by program, amines drawn as free bases though some values may be those of a salt)

SMILES | melting point
CCCCCS(=O)(=O)NC(=O)c1ccc2sc(C)c(Cc3ccc(Cl)c(Cl)c3)c2c1 | 159 to 160 °C
COC(=O)C(=O)c1ccc(SC)c(Cl)c1 | 67.9 to 70.2 °C
CCCCc1nc2c(N)nc(C)c(C)c2n1CCCCCS(N)(=O)=O | 130 °C
O=C(NC1CCC(CCN2CCN(c3nccc4c3OCC4)CC2)CC1)C1CCCO1 (racemic) | 145 °C
CSc1ccc(Cc2sc(NC(C)=O)nc2CCc2ccc(NC(=N)N)cc2)cc1 | 160 to 161 °C
COC(=O)c1ccc(CNC(=O)c2ccc3n2Cc2ccccc2N(C(=O)COc2ccc(Cl)cc2C)C3)cc1 | 165 to 167 °C
Cc1cc(OS(=O)(=O)C(F)(F)F)cc(=O)n1C | 65 to 67 °C
CCOC(=O)c1cc2ccc(Cl)c(N(C)S(=O)(=O)c3cccs3)c2[nH]1 | 156 to 157 °C
OCc1cc2cc(Cl)cc(Br)c2o1 | 123 to 126 °C
O=C(c1ccc(Cl)c(Cl)c1)N(CCCCn1ccnc1)C1=Nc2cccc3cccc1c23 | 138 to 141 °C
O=C(O)CCCSC=CS(=O)(=O)CCCC(=O)O | 120 °C
CC#CCOc1ccc(S(=O)(=O)N(C)C(C(=O)NO)c2ccc(OCCCNC(=O)OCc3ccccc3)cc2)cc1 (stereo unspecified) | 48 to 50 °C
CSc1ccc(-c2nn(Cc3ccccc3)c(=S)cc2-c2ccc(Cl)cc2)cc1 | 103 °C
CCOC(=O)C(C)(C)Oc1ccc(CCc2cc(-c3ccc(C(F)(F)F)cc3)oc2C)cc1 | 87 to 88 °C
Cc1cc(C)c2c(c1)OS(=O)(=O)C(=Cc1ccc(N(C)C)cc1)C2=O | 214 to 217 °C
CCCCCCOc1ccc(CCCCCCCCC(=O)O)cc1 | 79 to 81 °C
C/C(=C\COc1ccc(Cl)cc1Cl)C(=O)O | 117 to 122 °C
COc1ccc(Cn2cc(C(F)(F)F)ccc2=O)cc1 | 84.2 to 86.1 °C
CC(C)(C)OC(=O)N1CCC(c2nc3cc(-c4ccc(C(N)=O)c(F)c4)ccc3o2)CC1 | 202 to 206 °C
Cc1ccc(NC(=O)N2CCc3cc(S(=O)(=O)N4CC(c5ccccc5)NC4=O)ccc32)cc1 (stereo unspecified) | 223 to 224 °C
O=CC1=Cc2cc(OCc3ccc(C(F)(F)F)cc3)ccc2OC1 | 108 to 110 °C
CN(C)c1ccccc1CC(=O)N1C[C@@H]2C(=O)CCC(c3ccccc3)(c3ccccc3)[C@@H]2C1 | 150 °C
O=C(C1=Cc2ccccc2Oc2ccccc21)N1CCCCC1 | 127 to 128 °C
C=CCOc1ccc(OCCBr)cc1 | 27 to 28 °C
O=c1c2ccccc2oc2cccn12 | 129 to 130 °C
CC(C)Cn1c(=O)n(C)c(=O)c2c(-c3ccccc3F)n(Cc3csc4ccccc34)nc21 | 55 to 57 °C

SMILES | melting point
CC(C)(C)OC(=O)NCCc1cccc(OCCC2Oc3ccccc3N(Cc3ccccc3Cl)C2=O)c1 (stereo unspecified) | 61 to 65 °C
Cn1c(-c2ccccc2F)n[nH]c1=S | 137 to 139 °C
Nc1n[nH]cc1-c1ccc(Cc2ccccc2)cc1 | 127 to 130 °C
CN(C)c1ccc(C(=O)Nc2ccccc2CCC2CCCCN2C)cc1 (stereo unspecified) | 115 to 116 °C
COc1cc(Cc2cnc(N)nc2N)cc(OC)c1CN | 176 to 178 °C
O=C(O)c1ccc(SC(Cn2ccnc2)c2cccnc2)cc1 (stereo unspecified) | 80 to 83 °C
O=C(Nc1cccc(S(=O)(=O)N(CCO)CCO)c1)c1cnn2c(C(F)(F)F)cc(-c3ccc(C(F)(F)F)cc3)nc12 | 209 °C
N#CC1=C2C(=NC1=O)c1c(OCc3cccs3)ccc3cccc2c13 | 241 to 243 °C
N#Cc1ccc(N(Cc2ccc3c(c2)CNS(=O)(=O)O3)n2ccnc2)cc1 | 190 °C
NS(=O)(=O)c1ccc(-c2oc3ccc(F)cc3c(=S)c2-c2ccc(F)cc2)cc1 | 224 to 225 °C
CC(C)(ON1C(C)(C)CC(OC(=O)CCCCCCCCC(=O)OC2CC(C)(C)N(OC(C)(C)c3ccccc3)C(C)(C)C2)CC1(C)C)c1ccccc1 | 94 to 96 °C
c1ccc(OCc2ccsc2)cc1 | 49 to 50 °C
COc1ccc(CNc2cc[nH]n2)cc1OC1CCCC1 | 106 to 110 °C
CN(C)C=Nc1nc2c(nnn2C2CC(O)C(CO)O2)c(=O)[nH]1 (stereo unspecified) | 236 °C
CCCCc1cc(C(=O)OC)c(N)s1 | 62 to 63 °C
CCCCCCCCCCCCCCCCCC(=O)CC(=O)OC | 52 to 54 °C
COC(=O)C1(S(=O)(=O)N2CC=C(c3ccc(-c4ccccc4)c(C)c3)CC2)CCOCC1 | 117 to 119 °C
COC(=O)c1cccc2c([N+](=O)[O-])cccc12 | 105 °C
CC(=O)N[C@H](Cc1ccc(C#N)cc1)C(=O)O | 173 to 175 °C
CNC(=O)C(CCO)C1(C)OCCc2c1[nH]c1ccccc21 (stereo unspecified) | 169 to 171 °C
CC1CN(c2c(F)c(F)c3c(=O)c(C(=O)O)cn(C4CC4)c3c2F)CCN1 (stereo unspecified) | 235 to 237 °C
Cc1nc2c(N)nc3cccnc3c2n1Cc1cc(-c2ccc(F)cc2)no1 | 239 to 240 °C
O=C(C=Cc1ccc(N2CCCC2)cc1)c1ccc2c(c1)CCCC2 | 167 to 169 °C
c1cc2c3c(ccc2[nH]1)NCC3 | 183 to 186 °C
CN1CCN(c2cccc(N)c2)C(=O)C1 | 139 to 140 °C
Oc1ccc(-c2nc3cc(O)c(Br)cc3o2)cc1F | 224 to 226 °C

SMILES | melting point
Cc1c(CO)sc2c(Br)cccc12 | 129 to 130 °C
COCOc1ccc(N(C)S(=O)(=O)c2ccc(C)cc2)c([N+](=O)[O-])c1 | 110 to 112 °C
CC(C)(C)OC(=O)NC(CC(=O)NC1CC1)C1CC1 (stereo unspecified) | 166 to 168 °C
CN(C)c1nc2n(n1)Cc1ccccc1-2 | 164 to 166 °C
O=C1NC(=O)C(=Cc2ccc(-c3cc(C45CC6CC(CC(C6)C4)C5)c4oc(NC(=O)C(F)(F)F)nc4c3)nc2)S1 | 353 °C
O=C(OCC1CC1)c1ncn2c1[C@@H]1CCCN1C(=O)c1c(Br)cccc1-2 | 135 to 136 °C
CC(Oc1cccc2c(Oc3ccc(C(F)(F)F)cc3F)cccc12)C(=O)O (stereo unspecified) | 166 °C
CON(C)C(=O)c1cc(Cl)nc(Cl)c1 | 69 to 70 °C
O=C(Nc1ccccc1C(F)(F)F)OCc1nccn1-c1cc2cc(C(=O)O)c(=O)[nH]c2cc1Cl | > 300 °C
Cc1cc(C)cc(COC(=O)[C@H](Cc2ccc3ccccc3c2)NC(=O)OC(C)(C)C)c1 | 84 to 86 °C
FC(F)(F)C(F)(F)Cc1ccc(CBr)cc1 | 62 to 63 °C
CC1CCC2(OC1)OC1CC3C4CCC5CC(O)CCC5(C)C4C=CC3(C)C1C2C (stereo unspecified) | 179 to 181 °C
CN1CCC(c2c[nH]c3ccc(C(=O)c4ccc(Cl)cc4)cc23)CC1 | 133 °C
CCOC(=O)/C=C/c1ccc2c(=O)n(CC(C)C)c(CNC(=O)OC(C)(C)C)c(-c3ccccc3)c2c1 | 147 to 148 °C
CCCCN(C)S(=O)(=O)C1=C(C)NC(C)=C(C(=O)OCC2CC2)C1c1cccc([N+](=O)[O-])c1 (stereo unspecified) | 93 to 96 °C
Cc1ccc(Nc2nc(=O)cc(N)n2-c2ccccc2)cc1 | 207 to 210 °C
CSc1ccc(C(N)=S)cc1 | 176 to 178 °C
CCN1C(=O)Cc2cc3ccccc3cc2S1(=O)=O | 170 to 171 °C
O=C(O)c1ccc(NC(=O)c2ccncc2)cc1 | 362 to 365 °C
CC(C)Cn1c(=O)n(C)c(=O)c2cc(Cc3ccccc3)sc21 | 72 to 73 °C
O=C(O)c1cccc(-c2ccc3c(c2)C(Oc2cccc(C(F)(F)F)c2)CC3)c1 (stereo unspecified) | 175 to 185 °C
O=S(=O)(c1cccc(-c2cc(-c3nc(-c4ccc(C(F)(F)F)cc4)cc(C(F)(F)F)n3)ccn2)c1)N1CCCC1 | 184 °C
COc1cccc(CC(=O)O)c1OCCCc1cn(-c2ccc(C(C)=O)cn2)nc1C(C)C | 148 to 149 °C
Cc1nc2n(c1CO)-c1ccccc1N(C)c1ccccc1-2 | 187 to 190 °C
O=C1CC(c2ccccc2Cl)Cc2nccc(Cl)c21 (stereo unspecified) | 130 to 131 °C
Cc1oc(-c2ccccc2)nc1COc1ccc(OCc2oc(-c3ccccc3)nc2C=O)cc1 | 127 to 128 °C

SMILES | melting point
CNC(=O)Cc1cccc(NC(=O)NC)c1 | 175 to 177 °C
O=C(CCN1CCOCC1)NCc1ccc2c(c1)Cc1c(-c3ccsc3)n[nH]c1-2 | 205 to 207 °C
CCC/C(=C\C=C\C(=O)O)c1ccc(OC)cc1 | 151 to 152 °C
CC(C)(C)CC(C)(C)c1ccc(C(=O)O)cc1 | 153 to 155 °C
O=C(NS(=O)(=O)C=Cc1ccc([N+](=O)[O-])cc1)c1ccccc1 | 192 to 195 °C
Oc1ccc(-c2cc3cc(F)ccc3o2)cc1 | 202 to 204 °C
Cc1[nH]c(Cc2ccccc2)nc1CO | 134 to 138 °C
CC(=O)NCCc1cn(S(=O)(=O)c2ccc(C)cc2)c2ccc(OCCN3CCCCC3)cc12 | 65 to 66 °C
COc1cc2[nH]c(S)nc2cc1C | > 310 °C
CC(C)(C)OC(=O)N(Cc1ccccc1)c1ccc(O)cc1 | 228 to 230 °C
NS(=O)(=O)c1cc(C(=O)O)cc(OCc2ccccc2)c1-c1ccccc1 | 199 to 200 °C
CC(=O)OC1CSC(Oc2ccc(-c3cc4ccccc4o3)nc2)C(OC(C)=O)C1OC(C)=O (stereo unspecified) | 179 °C
C#CC#Cc1ccc(C(=O)O)cc1 | > 230 °C
CC(=O)Nc1ccc2c(c1)CC1CC(=O)NN=C21 (single isomer, unassigned; (-)) | 307 °C
O=C(Nc1ccc(-n2nc(C(F)(F)F)cc2C(F)(F)F)cc1)c1cc([N+](=O)[O-])cc([N+](=O)[O-])c1 | > 230 °C
Cc1cc(NCCO)c2[nH]ncc2n1 | 213 to 216 °C
Cc1cccc(-c2ccc3c(c2)CC[C@H]2N(C)C(=O)CC[C@]32C)c1C | 133 to 140 °C
CC(C)C(=O)NCC(=NNC(N)=S)c1ccccc1 | 183 to 185 °C
COc1cc(C(F)(F)F)cc(OC)c1-c1ccc(C[C@H](NC(=O)c2c(Cl)cccc2Cl)C(=O)O)cc1 | 231 to 232 °C
NC(Cc1cccc2ccccc12)(C(=O)O)C1CC(C(=O)O)C1 (stereo unspecified) | 189 to 191 °C
COc1ccc(SC2(Sc3ccc(OC)cc3)CCC3C4CCC5=CC(=O)C=CC5(C)C4(F)C(O)CC32C)cc1 (stereo unspecified) | 209 to 211 °C
N=C(N)Nc1ccc(C(=O)Nc2ncc(Cl)[nH]2)cc1 | 263 to 265 °C
N#Cc1c[nH]cc1-c1cccc2c1OCO2 | 206 to 208 °C
